According to US9963452B2, “Methods, compounds, and compositions for inhibition of ROS” (AUGUSTA PHARMACEUTICALS INC., priority 2013, dated 2018):
pEC50: −log10 of the molar value.

Assays:
Type in all cases: cell-based
[1] = tested on: U138 glioblastoma cell line; experiment: In-vitro cell survival assay (Alamar blue), U138; settings: U138, one day after compound addition
Description: (§1) Five tumor-derived cell lines were treated with the ROS inhibitor compounds and cell survival was monitored to determine the cancer prohibition effects of the compounds. The cell lines included HeLa, a cervical cancer cell line, and four glioblastoma cell lines U138, U87, LN18, and U118. The basic protocol for the in-vitro cell survival assay is the same for all five cell lines. In particular, the cells were seeded in 96-well plates at 2-5×10^3 cells/well (cell line dependent) in culture medium. The cells were grown for 2 days before the compounds were dissolved in DMSO and added to final concentrations of 100 uM, 10 uM, or 1 uM (DMSO final concentration 0.5%). The cell culture was then assayed one day after the addition of the compounds. The assay used Alamar blue as a redox-sensitive dye that interrogates mitochondrial fitness of cells, and these assays provided a readout for cell proliferation and viability. The raw values were normalized to an average of several vehicle control wells and are presented as percent decrease in proliferation/viability, which is converted to half maximal effective concentration (EC50) values.

[2] = tested on: HeLa cervical cancer cell line; experiment: In-vitro cell survival assay (Alamar blue), HeLa; settings: one day after compound addition
Description: as §1

[3] = tested on: U87 glioblastoma cell line; experiment: In-vitro cell survival assay (Alamar blue), U87; settings: U87, one day after compound addition
Description: as §1

[4] = tested on: LN18 glioblastoma cell line; experiment: In-vitro cell survival assay (Alamar blue), LN18; settings: LN18, one day after compound addition
Description: as §1

[5] = tested on: U118 glioblastoma cell line; experiment: In-vitro cell survival assay (Alamar blue), U118; settings: U118, one day after compound addition
Description: as §1

Compound	pEC50 ([1]; 24 h)	pEC50 ([2]; Homo sapiens, 24 h)	pEC50 ([3]; 24 h)	pEC50 ([4]; Homo sapiens, LN-18, 24 h)	pEC50 ([5]; 24 h)	pEC50 [1]	pEC50 [2]	pEC50 [3]	pEC50 [4]	pEC50 [5]
Cc1cccc(Nc2nccc(Nc3cccc(C(=O)NCc4ccc(F)cc4)c3)n2)c1 [drawing 379]	4.72	4.89	4.89	5.15	4.55					
c1cc(Nc2cc(C3CC3)[nH]n2)nc(Nc2ccc(NCc3cc(C4OCCO4)c(C4OCCO4)s3)cc2)n1 [drawing 437]	4.85	4.89	4.89	4.85	4.74					
Clc1ccc(CNc2cc(-c3ccccc3)ncn2)cc1 [drawing 383]	4.21	< 4.00	4.42	4.21	4.48					
Clc1nccc(Nc2cc(C3CC3)[nH]n2)n1 [drawing 435]	4.20	4.35	4.54	< 4.00	4.51					
CCN(CC)CCNC(=O)c1cccc(Nc2nccc(Nc3ccc4ncsc4c3)n2)c1 [drawing 373]	4.35	4.82	4.43	4.82	4.46					
O=C1NCCN1CCN1C(=O)c2ccccc2N[C@H]1c1ccccc1 [drawing 391]	< 4.00	< 4.00	< 4.00	4.44	4.42					
C[C@H](O)CN(C[C@H](C)O)C(=O)c1cccc(Nc2nccc(Nc3ccc4ncsc4c3)n2)c1 [drawing 420]	4.72	4.85	4.68	4.51	4.51					
COc1ccccc1C1C(C#N)=C(N)Oc2[nH]nc(C(F)(F)F)c21 (centres unmarked)						4.08	4.05	4.10	4.21	< 4.00
CC(C)CN(CC(C)C)C(=O)c1cccc(Nc2nccc(Nc3ccc4ncsc4c3)n2)c1 [drawing 424]	4.27	4.82	4.77	4.66	< 4.00					
Clc1ccc2nc(NCc3ccccn3)nc(-c3ccccc3)c2c1 [drawing 357]	< 4.00	< 4.00	4.15	4.80	< 4.00					
Cc1cccc(C(=O)n2nc(-c3ccco3)nc2NCc2ccccc2)c1 [drawing 431]	< 4.00	< 4.00	< 4.00	< 4.00	< 4.00					
CCOC(Nc1cc(-c2sccc2-n2c(C)ccc2C)[nH]n1)OCC [drawing 364]						< 4.00	< 4.00	4.59	< 4.00	< 4.00
O=C(c1ccccc1)n1nc(-c2ccco2)nc1NCc1ccc(Cl)cc1 [drawing 432]	< 4.00	< 4.00	< 4.00	< 4.00	< 4.00					
Cc1nc2cc(C(=O)N[C@H](c3ccccc3)c3cccnc3)ccc2[nH]1 [drawing 398]	< 4.00	< 4.00	< 4.00	< 4.00	< 4.00					
COc1ccc(NC(=O)CC2=Nc3cccc4cccc(c34)NC2=O)cc1 [drawing 482]	< 4.00	4.77			< 4.00					
Cc1cc(-c2ccccc2)c2ccc(N)nc2n1 [drawing 480]	4.34	4.24			< 4.00					
O=C(CCn1ccc2ccccc21)Nc1ccc(F)cc1 [drawing 475]	< 4.00	< 4.00			< 4.00					
CCOC(=O)c1ccc(NC(=O)CCn2ccc3ccccc32)cc1 [drawing 473]	< 4.00	< 4.00			< 4.00					
Cc1ccc(NC(=O)CCn2ccc3ccccc32)cc1 [drawing 472]	< 4.00	< 4.00			< 4.00					
NC(Cc1ccccc1)C(=O)n1ccc2cccnc21 (centres unmarked) [drawing 479]	< 4.00	4.35			< 4.00					

Compound	pEC50 ([1]; 24 h)	pEC50 ([2]; Homo sapiens, 24 h)	pEC50 ([3]; 24 h)	pEC50 ([4]; Homo sapiens, LN-18, 24 h)	pEC50 ([5]; 24 h)	pEC50 [1]	pEC50 [2]	pEC50 [3]	pEC50 [4]	pEC50 [5]
O=C(O)c1cccc(Nc2ncc(Cl)c(Nc3ccc4ncsc4c3)n2)c1 [drawing 462]	4.00	4.82	< 4.00	4.40						
COc1ccc(C(F)(F)F)cc1NC(=O)CCn1ccc2ccccc21 [drawing 476]	4.01	< 4.00			4.33					
CN1CCN(C(=O)c2ccc(Nc3ncc(Cl)c(Nc4ccc5ncsc5c4)n3)cc2)CC1 [drawing 444]	4.55	4.92	4.82	4.66						
CC(C)c1nc(Nc2ccc(C(=O)N3CCCCC3)cc2)nc(Nc2ccc3ncsc3c2)n1 [drawing 455]	4.74	4.52	4.40	4.52						
CC(C)c1nc(Nc2ccc3ncsc3c2)nc(N2CCCC2)n1 [drawing 451]	4.55	4.52	< 4.00	4.40						
CC(C)c1nc(Nc2ccc(C(=O)NCc3ccccc3)cc2)nc(Nc2ccc3ncsc3c2)n1 [drawing 459]	4.10	4.46	4.00	4.10						
NCC1CCN(C(=O)c2cccc(Nc3ncc(Cl)c(Nc4ccc5ncsc5c4)n3)c2)CC1 [drawing 470]	4.70	5.52	4.74	4.72						
Nc1cccc2cccc(N=C(CC(=O)O)C(=O)O)c12 [drawing 481]	< 4.00	4.20			< 4.00					
O=C(CC1=Nc2cccc3cccc(c23)NC1=O)NCc1cccc(I)c1 [drawing 483]	< 4.00	5.00			4.29					
CC(C)c1nc(Nc2ccc(C(=O)NCc3ccccc3)cc2)nc(Nc2cccc(Cc3nc4ccccc4s3)c2)n1 [drawing 453]	< 4.00	< 4.00	< 4.00	< 4.00						
COc1ccc(NC(=O)CCn2ccc3ccccc32)cc1 [drawing 474]	< 4.00	4.52			< 4.00					
O=C(O)c1ccc(Nc2ncc(Cl)c(Nc3ccc4ncsc4c3)n2)cc1 [drawing 445]	4.00	5.30	< 4.00	4.74						
NC1CCN(C(=O)c2ccc(Nc3ncc(Cl)c(Nc4ccc5ncsc5c4)n3)cc2)CC1 [drawing 464]	4.22	4.52	4.40	4.40						
O=C(CCn1ccc2ccccc21)Nc1cnccn1 [drawing 477]	4.04	4.19			4.48					
CN1CCN(C(=O)c2cccc(Nc3ncc(Cl)c(Nc4ccc5ncsc5c4)n3)c2)CC1 [drawing 466]	4.82	5.70	4.62	4.82						
CC(C)c1nc(Nc2ccc(C(=O)NCC3CCCCC3)cc2)nc(Nc2cccc(Cc3nc4ccccc4s3)c2)n1 [drawing 454]	< 4.00	< 4.00	< 4.00	< 4.00						
CCc1cc(Br)ccc1NC(=O)CCn1ccc2ccccc21 [drawing 478]	< 4.00	4.37			< 4.00					
O=C(NCC1CCNCC1)c1cccc(Nc2ncc(Cl)c(Nc3ccc4ncsc4c3)n2)c1 [drawing 471]	4.10	4.52	4.10	4.52						
O=C(c1cccc(Nc2ncc(Cl)c(Nc3ccc4ncsc4c3)n2)c1)N1CCCCC1 [drawing 465]	4.82	5.15	4.92	4.85						
